Measurements as given in patent US5084453A, “1-carboxy-1-vinyloxyimino aminothiazole cephalosporin derivatives” (priority 1988, dated 1992).
≈ marks a conversion by molar mass, not a printed value. Like-named read-outs stand apart in the source and are kept apart here.

What was measured:
Test in all cases: in vitro antibacterial activity, agar plate dilution method
Format in all cases: cell-based
[1] = test system: E. coli CSH2(RK1)*; conditions: Escherichia coli, 16 h
Protocol: (§1) Now, the in vitro antibacterial activities of the compounds of the present invention against various microorganisms, were measured by the following agar plate dilution method.
(§2) One platinum loopfull of each test microorganism incubated overnight in Mueller Hinton broth, was inoculated to Mueller Hinton agar (MH agaer). Such culture media containing various antibiotics in various concentrations were prepared. After incubation at 37° C. for 16 hours, the minimum inhibitory concentrations (MIC μg/ml) were measured.

[2] = test system: K. pneumoniae PC1-602; conditions: Klebsiella pneumoniae
Protocol: as §1, §2

[3] = test system: P. vulgaris HX-19; conditions: Proteus vulgaris, HX19; 10^6 CFU/ml; Mueller Hinton agar, 37° C., 16 hours; read-out: MIC
Protocol: as §1, §2

[4] = test system: S. marcescens No. 16-2*; conditions: Serratia marcescens
Protocol: as §1, §2

[5] = test system: Ps. aeruginosa AK 109; conditions: Pseudomonas aeruginosa, AK109; 10^6 CFU/ml; Mueller Hinton agar, 37° C., 16 hours; read-out: MIC
Protocol: as §1, §2

[6] = test system: E. cloacae 963; conditions: Enterobacter cloacae, 963, 16 h
Protocol: as §1, §2

[7] = test system: E. coli NIHJ JC2; conditions: Escherichia coli, NIHJJC2; 10^6 CFU/ml; Mueller Hinton agar, 37° C., 16 hours; read-out: MIC
Protocol: as §1, §2

[8] = test system: E. coli GN5482*; conditions: Escherichia coli
Protocol: as §1, §2

[9] = test system: K. pneumoniae No. 42*; conditions: Klebsiella pneumoniae, 16 h
Protocol: as §1, §2

[10] = test system: S. marcescens IAM 1184; conditions: Serratia marcescens
Protocol: as §1, §2

[11] = test system: A. calcoaceticus No. 4; conditions: Acinetobacter calcoaceticus, NO.4; 10^6 CFU/ml; Mueller Hinton agar, 37° C., 16 hours; read-out: MIC
Protocol: as §1, §2

[12] = test system: Ps. aeruginosa AKR17; conditions: Pseudomonas aeruginosa, AKR17; 10^6 CFU/ml; Mueller Hinton agar, 37° C., 16 hours; read-out: MIC
Protocol: as §1, §2

[13] = test system: M. morganii GN5407*; conditions: Morganella morganii
Protocol: as §1, §2

[14] = test system: K. oxytoca GN10650*; conditions: Klebsiella oxytoca, GN10650, 16 h
Protocol: as §1, §2

[15] = test system: E. coli CSH(RE45)*; conditions: Escherichia coli; 10^6 CFU/ml; β-Lactamase-producing strain; 37° C., 16 hours; read-out: MIC
Protocol: as §1, §2

[16] = test system: P. vulgaris No. 33*; conditions: Proteus vulgaris
Protocol: as §1, §2

[17] = test system: E. cloacae Nek 39*; conditions: Enterobacter cloacae
Protocol: as §1, §2

[18] = test system: Ps. aeruginosa IFO3445; conditions: Pseudomonas aeruginosa
Protocol: as §1, §2

[19] = test system: Ps. cepacia 23
Protocol: as §1, §2

[20] = test system: S. aureus 209P NIHJ-JC1; conditions: Staphylococcus aureus
Protocol: as §1, §2

[21] = 10^6 CFU/ml, β-Lactamase-producing strain, 37° C., 16 hours, read-out: MIC
[22] = PC1602, 10^6 CFU/ml, Mueller Hinton agar, 37° C., 16 hours, read-out: MIC
[23] = IAM1184, 10^6 CFU/ml, Mueller Hinton agar, 37° C., 16 hours, read-out: MIC
[24] = Burkholderia cepacia, 23, 10^6 CFU/ml, Mueller Hinton agar, 37° C., 16 hours, read-out: MIC

Compound | MIC [1] [µg/mL] | MIC ([2]; PC1602, 16 h) [µg/mL] | MIC [3] [µg/mL] | MIC [4, 21] [µg/mL] | MIC [5] [µg/mL] | MIC [6] [µg/mL] | MIC [7] [µg/mL] | MIC [9] [µg/mL] | MIC ([10]; IAM1184, 16 h) [µg/mL] | MIC [11] [µg/mL] | MIC [12] [µg/mL] | MIC ([13]; GN5407, 16 h) [µg/mL] | MIC [14] [µg/mL] | MIC [15] [µg/mL] | MIC [17, 21] [µg/mL] | MIC ([18]; IFO3445, 16 h) [µg/mL] | MIC ([20]; 16 h) [µg/mL] | MIC ([8]; GN5482, 16 h) [µg/mL] | MIC [16, 21] [µg/mL] | MIC [19, 24] [µg/mL] | also measured
C=C(O/N=C(\C(=O)N[C@@H]1C(=O)N2C(C(=O)[O-])=C(C[n+]3cccc(C(=O)O)c3)CS[C@H]12)c1csc(N)n1)C(=O)O [Example 3, 7β-[2-(2-aminothiazol-4-yl)-2-(1-carboxy-1-vinyloxyimino)acetamido]-3-(3-carboxy-1-pyridinio)methyl-3-cephem-4-carboxylate (syn-isomer)] | 0.05 (≈ 0.087 µM) | 0.025 (≈ 0.0435 µM) | 0.0125 (≈ 0.0218 µM) | 3.12 (≈ 5.43 µM) | 100 (≈ 174 µM) | 0.1 (≈ 0.174 µM) | 0.2 (≈ 0.348 µM) | 0.39 (≈ 0.679 µM) | 0.05 (≈ 0.087 µM) | 25 (≈ 43.5 µM) | > 100 | 0.05 (≈ 0.087 µM) | 0.2 (≈ 0.348 µM) | 0.05 (≈ 0.087 µM) | 3.12 (≈ 5.43 µM) | 6.25 (≈ 10.9 µM) | 6.25 (≈ 10.9 µM) |  |  |  | MIC ([8]; GN5482, 10^6 CFU/ml, β-Lactamase-producing strain, 37° C., 16 hours, read-out: MIC): 3.12 µg/mL (≈ 5.43 µM); MIC ([16]; 16 h): 0.05 µg/mL (≈ 0.087 µM); MIC ([19]; Burkholderia cepacia, 23, 16 h): 6.25 µg/mL (≈ 10.9 µM)
C=C(O/N=C(\C(=O)N[C@@H]1C(=O)N2C(C(=O)[O-])=C(C[n+]3cccc(C(N)=O)c3)CS[C@H]12)c1csc(N)n1)C(=O)O [Example 4, 7β-[2-(2-aminothiazol-4-yl)-2-(1-carboxy-1-vinyloxyimino)acetamido] vinyloxyimino)acetamido]-3-(3-carbamoyl-1-pyridinio)methyl-3-cephem-4-carboxylate (syn-isomer)] | 0.025 (≈ 0.0436 µM) |  | 0.0125 (≈ 0.0218 µM) |  | 12.5 (≈ 21.8 µM) | 0.05 (≈ 0.0872 µM) | 0.05 (≈ 0.0872 µM) | 0.1 (≈ 0.174 µM) |  | 3.12 (≈ 5.44 µM) | > 100 |  | 0.1 (≈ 0.174 µM) | 0.025 (≈ 0.0436 µM) |  | 1.56 (≈ 2.72 µM) | 1.56 (≈ 2.72 µM) | 0.2 (≈ 0.349 µM) | 0.0125 (≈ 0.0218 µM) | 3.12 (≈ 5.44 µM) | MIC [2, 22]: 0.0125 µg/mL (≈ 0.0218 µM); MIC ([4]; 16 h): 0.78 µg/mL (≈ 1.36 µM); MIC [10, 23]: 0.0125 µg/mL (≈ 0.0218 µM); MIC ([13]; GN5407, 10^6 CFU/ml, β-Lactamase-producing strain, 37° C., 16 hours, read-out: MIC): 0.0125 µg/mL (≈ 0.0218 µM); MIC ([17]; 16 h): 0.2 µg/mL (≈ 0.349 µM)
C=C(O/N=C(\C(=O)N[C@@H]1C(=O)N2C(C(=O)[O-])=C(C[n+]3ccc(C(=O)O)cc3)CS[C@H]12)c1csc(N)n1)C(=O)O [Example 5, 7β-[2-(2-aminothiazol-4-yl)-2-(1-carboxy-1-vinyloxyimino)acetamido]-3-(4-carboxy-1-pyridinio)methyl-3-cephem-4-carboxylate (syn-isomer)] | 0.2 (≈ 0.348 µM) | 0.025 (≈ 0.0435 µM) | < 0.006 |  | 25 (≈ 43.5 µM) | 0.2 (≈ 0.348 µM) | 0.2 (≈ 0.348 µM) | 0.39 (≈ 0.679 µM) | 0.025 (≈ 0.0435 µM) | 50 (≈ 87 µM) | > 100 | 0.025 (≈ 0.0435 µM) | 0.39 (≈ 0.679 µM) | 0.05 (≈ 0.087 µM) | 3.12 (≈ 5.43 µM) |  |  | 1.56 (≈ 2.72 µM) | 0.0125 (≈ 0.0218 µM) | 12.5 (≈ 21.8 µM) | MIC ([4]; 16 h): 6.25 µg/mL (≈ 10.9 µM); MIC ([18]; IFO3445, 10^6 CFU/ml, Mueller Hinton agar, 37° C., 16 hours, read-out: MIC): 25 µg/mL (≈ 43.5 µM); MIC ([20]; 10^6 CFU/ml, Mueller Hinton agar, 37° C., 16 hours, read-out: MIC): 12.5 µg/mL (≈ 21.8 µM)
C=C(O/N=C(\C(=O)N[C@@H]1C(=O)N2C(C(=O)[O-])=C(C[n+]3ccc(C(N)=O)cc3)CS[C@H]12)c1csc(N)n1)C(=O)O [Example 6, 7β-[2-(2-aminothiazol-4-yl)-2-(1-carboxy-1-vinyloxyimino)acetamido]-3-(4-carbamoyl-1-pyridinio)methyl-3-cephem-4-carboxylate (syn-isomer)] | 0.025 (≈ 0.0436 µM) |  | 0.0125 (≈ 0.0218 µM) | 3.12 (≈ 5.44 µM) | 12.5 (≈ 21.8 µM) | 0.05 (≈ 0.0872 µM) | 0.05 (≈ 0.0872 µM) | 0.1 (≈ 0.174 µM) |  | 12.5 (≈ 21.8 µM) | > 100 | 0.025 (≈ 0.0436 µM) | 0.2 (≈ 0.349 µM) | 0.025 (≈ 0.0436 µM) |  | 6.25 (≈ 10.9 µM) | 1.56 (≈ 2.72 µM) | 0.39 (≈ 0.68 µM) | 0.0125 (≈ 0.0218 µM) | 3.12 (≈ 5.44 µM) | MIC [2, 22]: < 0.006 µg/mL; MIC [10, 23]: < 0.006 µg/mL; MIC ([17]; 16 h): 1.56 µg/mL (≈ 2.72 µM)
